Measured values published in patent US20080305995A1, “Royal Jelly Peptide and Composition Containing the Same” (priority 2003, published 2008).

Columns and labels:
[1] = test system: honeybee larvae; assay: Effect of inducing differentiation to queen bees (honeybee artificial breeding, peptide in artificial diet); type: in vivo, Western honeybees (Apis mellifela)
Description: Functional analysis was carried out by using the royal jelly peptide obtained in Example 6. Specifically, honeybees were bred according to the existing honeybee artificial breeding method. In this process, 500 ng of the royal jelly peptide was added in the artificial diet to be administered per honeybee. On the other hand, for the control group, bovine serum albumin was used in place of the royal jelly peptide.
The growth rate from larvae to imagines is about 20%. […] From this, it can be considered that the royal jelly peptide of the invention of this invention is […] having an auxiliary function in inducing differentiation to queen bees.

[2] = test system: lymphocyte cell derived from a mouse spleen; assay: Immunity activation test (alamar blue, lymphocyte growth); type: cell-based, ICR type mice; conditions: 3 μg/ml and 6 μg/ml, every 12 hours for 4 days, compared with no addition (FIG. 9)
Description: For the laboratory animal, ICR type mice (female, Nippon SLC) were used.
Whereas, for the medium, an RPMI medium (manufactured by Nissui Pharmaceutical Co., Ltd.) containing 10% fetal calf serum (FCS), 2 mM L-glutamine, 50 μM 2-mercaptoethanol, 100 Units/ml penicillin, and 100 μg/ml streptomycin was used. Thus, culturing was carried out in 5% CO2 at 37° C. under wet conditions.
Namely, the mice anesthetized with diethyl ether were subjected to cervical vertebrae dislocation, and fixed. Then, by using scissors for dissection and tweezers, the spleen was excised, and transferred to a dish containing therein 10 ml of PBS (−) (137 mM NaCl, 2.7 mM KCl, 2 mM Na2HPO4-12HyO, 1.5 mM KH2PO4). In the dish, the spleen was homogenized. […]
The lymph cell suspension controlled was dyed with a 0.4% trypan blue solution, and the number of cells was counted by means of a Burker-Turk hemocytomer. […]
The lymph cell suspension controlled in the item <bb was added in an amount of 100 μl per well into a 96-well microplate (manufactured by IWAKI Co.). […] Thus, the changes in absorbance were measured by means of a microplate reader (manufactured by Nalge Nunc International Co.) set at a wavelength of 590 to 620 nm every 12 hours for 4 days to analyze the effects of each fraction and isolated compound on the lymphocytes. […]

[3] = 500 ng per honeybee in artificial diet, 24 first instar larvae
[4] = 500 ng per honeybee in artificial diet, number among imagines

## apisimin (KTSISVKGESNVDVVSQINSLVSSIVSGANVSAVLLAQTLVNILQILIDANVFA) [Recombinant peptide, Royal jelly peptide of 54 amino acid residues (apisimin), expressed in E. coli as thioredoxin fusion, cleaved with Factor Xa]
[1]; [3]
  Number of imagines: 4
  Number of last instar larvae: 14
  Number of pupae: 8
[1]; [4]
  Caste: Intermediates: 1
  Caste: Queen: 0
  Caste: Working bee: 3
[1]; Table 1 experiment
  growth rate from larvae to imagines: about 20%
[1]; larvae to which the royal jelly peptide had been administered
  emergence of intermediates out of the larvae: intermediates can be allowed to emerge
[2]
  effect on the growth of lymphocyte cells (alamar blue absorbance): remarkably exhibited
